The source of these data is US7671054B1, “Reverse-turn mimetics and method relating thereto” (Choongwae Pharma Corporation, priority 2001, dated 2010).

Structures are written as SMILES.

The term GI50 denotes the concentration giving 50% growth inhibition.

For one assay, the system named is HCT116 cells. The assay is described as follows: Growth inhibition assay (MTS). Format: cell-based. Particulars: Homo sapiens, HCT-116, 48 h, Table 5; HCT116 cells, 48 hours treatment, MTS; read-out: Growth Inhibition (GI50, uM) HCT116. In short, it runs like this: (§1)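 Cells seeded at 10^4 per well, grown 24 h at 37° C, then exposed to compound at various concentrations for 48 hours. MTS added for 2 h; absorbance at 490 nm gave viability, with cytotoxicity calculated per concentration against pre-treatment reading.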
In the case of `CN1CC(=O)N2[C@@H](Cc3ccc(O)cc3)C(=O)N(Cc3cccc(N4CCCCC4)c3)C[C@@H]2N1C(=O)NCc1ccccc1` [Compound 48], the GI50 came out at 15.5 ± 2.3 µM.
`C[C@H](c1ccc(F)cc1F)N1C[C@H]2N(C(=O)CN(C)N2C(=O)NCc2ccccc2)[C@@H](Cc2ccc(O)cc2)C1=O` [Compound 165]: the GI50 came to 24.4 ± 1.9 µM.
The same measure, in the same setting: to `CN1CC(=O)N2[C@@H](Cc3ccc(O)cc3)C(=O)N(Cc3cccc(N4CCOCC4)c3)C[C@@H]2N1C(=O)NCc1ccccc1` [Compound 90] belongs 14.7 ± 1 µM; to `C=CCN1CC(=O)N2[C@@H](Cc3ccc(O)cc3)C(=O)N(Cc3ccc(F)c4scnc34)C[C@@H]2N1C(=O)NCc1ccccc1` [Compound 194], 0.2 ± 0.02 µM; to `CN1CC(=O)N2[C@@H](Cc3ccc(O)cc3)C(=O)N(Cc3ccccc3SC(F)(F)F)C[C@@H]2N1C(=O)NCc1ccccc1` [Compound 6], 3.91 µM.
As to `C=CCN1CC(=O)N2[C@@H](Cc3ccc(O)cc3)C(=O)N(Cc3ccc(C)c(N4CCOCC4)c3)C[C@@H]2N1C(=O)NCc1ccccc1` [Compound 105], the GI50 came out at 2.1 ± 0.3 µM.
On the same count and under the same terms, to `C=CCN1CC(=O)N2[C@@H](Cc3ccc(O)cc3)C(=O)N(Cc3cccc(OC)c3OC)C[C@@H]2N1C(=O)NCc1ccccc1` [Compound 184] belongs 0.7 ± 0.1 µM; to `CCCN1CC(=O)N2[C@@H](Cc3ccc(O)cc3)C(=O)N(Cc3ccc(Cl)c(N(C)C)c3)C[C@@H]2N1C(=O)NCc1ccccc1` [Compound 98], 4.4 ± 0.5 µM; to `CN1CC(=O)N2[C@@H](Cc3ccc(O)cc3)C(=O)N(Cc3cccc4cnn(Cc5ccccc5[N+](=O)[O-])c34)C[C@@H]2N1C(=O)NCc1ccccc1` [Compound 51], 2.8 µM.
For `C=CCN1CC(=O)N2[C@@H](CN([C@H](C)c3cccc4cccnc34)C(=O)[C@@H]2Cc2ccc(O)cc2)N1C(=O)NCc1ccccc1` [Compound 161], the GI50 turned out to be 4.1 ± 0.5 µM.
With `C=CCN1CC(=O)N2[C@@H](Cc3ccc(O)cc3)C(=O)N(Cc3cc(C)cc4c3N(C)CCO4)C[C@@H]2N1C(=O)NCc1ccccc1` [Compound 137], the 50% growth inhibitory concentration (GI50) was 1.3 ± 0.3 µM.
For `CCCN1CC(=O)N2[C@@H](Cc3ccc(O)cc3)C(=O)N(Cc3cccc(N4CCOCC4)c3)C[C@@H]2N1C(=O)NCc1ccccc1` [Compound 96], the 50% growth inhibitory concentration (GI50) worked out at 3.4 ± 0.4 µM.
Turning to `C=CCN1CC(=O)N2[C@@H](Cc3ccc(O)cc3)C(=O)N(Cc3cccc4sc(-c5ccc(O)cc5)nc34)C[C@@H]2N1C(=O)NCc1ccccc1` [Compound 192], the GI50 amounted to 1.3 ± 0.1 µM.
As to `C#CCn1cc2c(CN3C[C@H]4N(C(=O)CN(C)N4C(=O)NCc4ccccc4)[C@@H](Cc4ccc(O)cc4)C3=O)cccc2n1` [Compound 71], the GI50 is 3.6 ± 0.7 µM.
With `CN1CC(=O)N2[C@@H](Cc3ccc(O)cc3)C(=O)N(Cc3cccc4cnn(CCN5CCOCC5)c34)C[C@@H]2N1C(=O)NCc1ccccc1` [Compound 69], the GI50 was determined as 9.7 ± 1 µM.
Same read-out and setting: for `CCCN1CC(=O)N2[C@@H](Cc3ccc(O)cc3)C(=O)N(Cc3cccc4cccnc34)C[C@@H]2N1C(=O)NCc1ccccc1` [Compound 94] the value was 0.7 ± 0.07 µM.
In the case of `CN1CC(=O)N2[C@@H](Cc3ccc(O)cc3)C(=O)N(Cc3cccc4c3cnn4Cc3ccccc3N)C[C@@H]2N1C(=O)NCc1ccccc1` [Compound 63], the 50% growth inhibitory concentration (GI50) came out at 1.3 ± 0.1 µM.
Same read-out and setting: to `CN1CC(=O)N2[C@@H](Cc3ccc(O)cc3)C(=O)N(Cc3cccc4cnn(Cc5ccc(N)cc5)c34)C[C@@H]2N1C(=O)NCc1ccccc1` [Compound 78] belongs 3.7 ± 0.3 µM.
The same measure, in the same setting: to `C=CCN1CC(=O)N2[C@@H](Cc3ccc(O)cc3)C(=O)N(Cc3ccc(Cl)c(N(C)C)c3)C[C@@H]2N1C(=O)NCc1ccccc1` [Compound 101] belongs 0.9 ± 0.1 µM.

The same assay, now with this note: Homo sapiens, HCT-116, 48 h, read-out: Growth Inhibition (GI50, uM) HCT116.
Regarding `C=CCN1CC(=O)N2[C@@H](Cc3ccc(OC(=O)NCCN(C)C)cc3)C(=O)N(Cc3ccc(F)cc3F)C[C@@H]2N1C(=O)NCc1ccccc1` [Compound 143], the GI50 came to 1.2 ± 0.1 µM.

Staying with this assay, now noted: Homo sapiens, HCT-116; Table 5; HCT116 cells, 48 hours treatment, MTS; read-out: Growth Inhibition (GI50, uM) HCT116.
As for `C=CCN1CC(=O)N2[C@@H](Cc3ccc(OP(=O)(O)O)cc3)C(=O)N(Cc3cccc4c3OCCN4C)C[C@@H]2N1C(=O)NCc1ccccc1` [Compound 139], the GI50 is 1 ± 0.2 µM.

Another assay concerns SW480 cells. The assay is described as follows: Growth inhibition assay (MTS). In kind it is cell-based. The conditions noted are these: Homo sapiens, SW480, 48 h, Table 5; SW480 cells, 48 hours treatment, MTS; read-out: Growth Inhibition (GI50, uM) SW480. An outline of the steps: as §1
Regarding `CN1CC(=O)N2[C@@H](Cc3ccc(O)cc3)C(=O)N(Cc3cccc(N4CCCCC4)c3)C[C@@H]2N1C(=O)NCc1ccccc1` [Compound 48], the GI50 is 20.7 ± 2.8 µM.
Still for that read-out and setting: for `C[C@H](c1ccc(F)cc1F)N1C[C@H]2N(C(=O)CN(C)N2C(=O)NCc2ccccc2)[C@@H](Cc2ccc(O)cc2)C1=O` [Compound 165] the value was 22.8 ± 0.9 µM; for `CN1CC(=O)N2[C@@H](Cc3ccc(O)cc3)C(=O)N(Cc3cccc(N4CCOCC4)c3)C[C@@H]2N1C(=O)NCc1ccccc1` [Compound 90], 12.6 ± 0.9 µM.
On the same count and under the same terms, to `C=CCN1CC(=O)N2[C@@H](Cc3ccc(O)cc3)C(=O)N(Cc3ccc(F)c4scnc34)C[C@@H]2N1C(=O)NCc1ccccc1` [Compound 194] belongs 0.2 ± 0.02 µM; to `CN1CC(=O)N2[C@@H](Cc3ccc(O)cc3)C(=O)N(Cc3ccccc3SC(F)(F)F)C[C@@H]2N1C(=O)NCc1ccccc1` [Compound 6], 3.96 µM; to `C=CCN1CC(=O)N2[C@@H](Cc3ccc(O)cc3)C(=O)N(Cc3ccc(C)c(N4CCOCC4)c3)C[C@@H]2N1C(=O)NCc1ccccc1` [Compound 105], 2.8 ± 0.2 µM.
Same read-out and setting: for `C=CCN1CC(=O)N2[C@@H](Cc3ccc(O)cc3)C(=O)N(Cc3cccc(OC)c3OC)C[C@@H]2N1C(=O)NCc1ccccc1` [Compound 184] the value was 0.7 ± 0.4 µM.
For `CCCN1CC(=O)N2[C@@H](Cc3ccc(O)cc3)C(=O)N(Cc3ccc(Cl)c(N(C)C)c3)C[C@@H]2N1C(=O)NCc1ccccc1` [Compound 98], the GI50 was 7 ± 1.1 µM.
On the same count and under the same terms, to `CN1CC(=O)N2[C@@H](Cc3ccc(O)cc3)C(=O)N(Cc3cccc4cnn(Cc5ccccc5[N+](=O)[O-])c34)C[C@@H]2N1C(=O)NCc1ccccc1` [Compound 51] belongs 3 ± 0.1 µM; to `C=CCN1CC(=O)N2[C@@H](CN([C@H](C)c3cccc4cccnc34)C(=O)[C@@H]2Cc2ccc(O)cc2)N1C(=O)NCc1ccccc1` [Compound 161], 4.2 ± 0.4 µM; to `C=CCN1CC(=O)N2[C@@H](Cc3ccc(O)cc3)C(=O)N(Cc3cc(C)cc4c3N(C)CCO4)C[C@@H]2N1C(=O)NCc1ccccc1` [Compound 137], 1.4 ± 0.4 µM.
Consider `CCCN1CC(=O)N2[C@@H](Cc3ccc(O)cc3)C(=O)N(Cc3cccc(N4CCOCC4)c3)C[C@@H]2N1C(=O)NCc1ccccc1` [Compound 96], for which the GI50 was found to be 3.7 ± 0.4 µM.
On the same count and under the same terms, for `C=CCN1CC(=O)N2[C@@H](Cc3ccc(O)cc3)C(=O)N(Cc3cccc4sc(-c5ccc(O)cc5)nc34)C[C@@H]2N1C(=O)NCc1ccccc1` [Compound 192] the value was 1.1 ± 0.1 µM; for `C#CCn1cc2c(CN3C[C@H]4N(C(=O)CN(C)N4C(=O)NCc4ccccc4)[C@@H](Cc4ccc(O)cc4)C3=O)cccc2n1` [Compound 71], 4.6 ± 0.5 µM; for `CN1CC(=O)N2[C@@H](Cc3ccc(O)cc3)C(=O)N(Cc3cccc4cnn(CCN5CCOCC5)c34)C[C@@H]2N1C(=O)NCc1ccccc1` [Compound 69], 17.9 ± 3.1 µM.
Turning to `CCCN1CC(=O)N2[C@@H](Cc3ccc(O)cc3)C(=O)N(Cc3cccc4cccnc34)C[C@@H]2N1C(=O)NCc1ccccc1` [Compound 94], the GI50 worked out at 1.1 ± 0.3 µM.
On to `CN1CC(=O)N2[C@@H](Cc3ccc(O)cc3)C(=O)N(Cc3cccc4c3cnn4Cc3ccccc3N)C[C@@H]2N1C(=O)NCc1ccccc1` [Compound 63], for which the GI50 worked out at 18.8 ± 4.8 µM.
Still for that read-out and setting: to `CN1CC(=O)N2[C@@H](Cc3ccc(O)cc3)C(=O)N(Cc3cccc4cnn(Cc5ccc(N)cc5)c34)C[C@@H]2N1C(=O)NCc1ccccc1` [Compound 78] belongs 2.2 ± 0.2 µM; to `C=CCN1CC(=O)N2[C@@H](Cc3ccc(O)cc3)C(=O)N(Cc3ccc(Cl)c(N(C)C)c3)C[C@@H]2N1C(=O)NCc1ccccc1` [Compound 101], 1.1 ± 0.07 µM.

Still in this assay, the particulars now being: Homo sapiens, SW480, 48 h, read-out: Growth Inhibition (GI50, uM) SW480.
In the case of `C=CCN1CC(=O)N2[C@@H](Cc3ccc(OC(=O)NCCN(C)C)cc3)C(=O)N(Cc3ccc(F)cc3F)C[C@@H]2N1C(=O)NCc1ccccc1` [Compound 143], the GI50 worked out at 1.2 ± 0.1 µM.

Still in this assay, the particulars now being: Homo sapiens; Table 5; SW480 cells, 48 hours treatment, MTS; read-out: Growth Inhibition (GI50, uM) SW480.
On to `C=CCN1CC(=O)N2[C@@H](Cc3ccc(OP(=O)(O)O)cc3)C(=O)N(Cc3cccc4c3OCCN4C)C[C@@H]2N1C(=O)NCc1ccccc1` [Compound 139], for which the GI50 came to 1.2 ± 0.1 µM.
